Test results taken from paper PMC8802628, “Selective activation of PFKL suppresses the phagocytic oxidative burst” (Cell, 2021).
Positions count from the first letter of the chain named.

What was measured:
PMNs = experiment: NADPH/NADP+ detection assay in neutrophils; assay type: cell-based, human; conditions: PMA 30 min, then apocynin
Protocol: The ratio of NADPH/NADP^+ (or NADH/NAD^+) was calculated after measuring the individual concentrations of NADPH and NADP^+ (or NADH and NAD^+) with NADP/NADPH-Glo (or NAD/NADH-Glo) assays (Promega). […] Cells were lysed in plates by addition of 1% dodecyltrimethylammonium bromide (DTAB). To measure NADPH, half of the samples was heated at 60 °C for 30 min. The other half was treated with HCl before heating to 60°C, to measure NADP^+. All samples were neutralized before adding luciferase detection reagent, then incubated for 1 h with gentle shaking. Luminescence was recorded on a plate reader (Envision).

[1] = target: T1, PFKM+pocket (R315 to lysine) (Homo sapiens, UniProt P08237, R315K); experiment: Recombinant PFKM+pocket activity assay; assay type: biochemical; conditions: at 4 mM ATP
T1 construct: made in house; host or cells: Sf9 insect cells (baculovirus)
T1 sequence (P08237 1-780 R315K): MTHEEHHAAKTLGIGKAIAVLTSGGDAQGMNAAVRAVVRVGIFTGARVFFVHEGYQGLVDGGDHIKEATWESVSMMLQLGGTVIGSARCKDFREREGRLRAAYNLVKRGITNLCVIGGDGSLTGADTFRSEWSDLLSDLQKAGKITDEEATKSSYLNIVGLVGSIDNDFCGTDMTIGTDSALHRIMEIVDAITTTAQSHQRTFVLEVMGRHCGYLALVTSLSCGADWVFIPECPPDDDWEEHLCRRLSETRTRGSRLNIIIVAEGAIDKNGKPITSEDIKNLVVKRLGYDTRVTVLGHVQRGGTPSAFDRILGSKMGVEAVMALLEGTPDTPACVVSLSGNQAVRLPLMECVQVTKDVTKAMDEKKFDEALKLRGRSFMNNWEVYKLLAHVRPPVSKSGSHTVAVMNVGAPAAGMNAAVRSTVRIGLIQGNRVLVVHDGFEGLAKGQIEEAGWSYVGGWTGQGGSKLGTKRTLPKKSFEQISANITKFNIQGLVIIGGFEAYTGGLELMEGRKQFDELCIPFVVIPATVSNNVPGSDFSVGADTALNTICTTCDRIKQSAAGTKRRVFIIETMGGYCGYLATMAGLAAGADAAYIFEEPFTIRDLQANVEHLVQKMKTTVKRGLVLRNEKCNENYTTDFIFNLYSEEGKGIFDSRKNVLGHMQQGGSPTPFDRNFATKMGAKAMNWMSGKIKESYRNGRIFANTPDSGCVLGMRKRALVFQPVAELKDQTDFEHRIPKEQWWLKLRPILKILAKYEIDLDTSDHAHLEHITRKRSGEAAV
Description: (§1) Recombinant N-terminal His-tagged human PFKL (NP_002617), PFKM (NP_000280), and PFKP (NM_002627.4) were generated as described ([Webb et al., 2015], [2017]). Point mutants of PFK1 were generated using the QuikChange Lightning kit (Aligent).
(§2) His-tagged PFK1 was expressed and purified as described with slight modifications ([Webb et al., 2015], [2017]). Briefly, baculovirus was generated using the Bac-to-Bac Expression system (Invitrogen). PFK1 was expressed in 2-5 × 10^6 sf9 cells at a multiplicity of infection of two for 48 h. Cells were lysed in 20 mM HEPES, pH 7.5, 80 mM potassium phosphate, 1 mM 2-mercapentoethanol, 10% glycerol, 10 mM imidazole, and EDTA-free Protease Inhibitor Cocktail (Abcam) with a Dounce homogenizer. The soluble lysate was incubated with HisPur cobalt resin (ThermoFisher Scientific). The resin was washed with 5 bead volumes lysis buffer, 10 bead volumes lysis buffer containing 2 M NaCl, and 5 further bead volumes lysis buffer. PFK1 was eluted in lysis buffer containing 100 mM imidazole. Fractions containing protein were pooled, passed over a desalting column equilibrated in freezing buffer [20 mM HEPES pH 7.5, 1 mM DTT, 500 μM ammonium sulfate, 5% glycerol, 1 mM ATP, and 100 μM EDTA] and concentrated using an Amicon Ultracel-30K Centrifugal Filter Unit (MilliporeSigma). Protein was quantified using a Bradford Protein Assay kit (ThermoFisher Scientific), and aliquotes frozen in liquid nitrogen for storage at −80°C.
PFK1 activity was determined using the rate of FBP production via an auxiliary enzyme assay adapted to a 96-well format ([Brüser et al., 2012]; [Webb et al., 2015]). The auxiliary enzymes aldolase, triosephosphate isomerase, and glycerol phosphate dehydrogenase were purchased from MilliporeSigma as ammonium sulfate slurries and desalted using an Amicon Ultracel-10K Centrifugal Filter Unit. For assays containing FBP, the rate of ADP production was determined using the auxiliary enzymes pyruvate kinase (PK) and lactate dehydrogenase (LDH) (MilliporeSigma) in a buffer containing 250 μM phosphoenolpyruvic acid, […] NADH, 50 mM HEPES pH 7.5, 100 mM KCl, 1 mM DTT, and effector concentrations as described in the text. The temperature was equilibrated to 25°C for 5 min before initiating the reaction 10 mM MgCl2. Absorbance at 340 nm was measured using a Varioskan LUX Multimode microplate reader (ThermoFisher). Kinetic parameters were generated by nonlinear regression analysis using Prism (GraphPad Software) and are the mean of a minimum of three measurements from two independent preparations of protein. One unit of activity was defined as the amount of enzyme that catalyzed the formation of 1 μmol of fructose 1,6-bisphosphate per min at 25°C. […]

PFKL = target: T2, PFKL (Homo sapiens, UniProt P17858); experiment: Recombinant PFKL activity assay (relief of ATP inhibition); assay type: biochemical; conditions: at 3.1 mM ATP; F6P approximately twice the Km,F6P
T2 construct: made in house; host or cells: Sf9 insect cells (baculovirus, Bac-to-Bac)
T2 sequence (P17858 1-780): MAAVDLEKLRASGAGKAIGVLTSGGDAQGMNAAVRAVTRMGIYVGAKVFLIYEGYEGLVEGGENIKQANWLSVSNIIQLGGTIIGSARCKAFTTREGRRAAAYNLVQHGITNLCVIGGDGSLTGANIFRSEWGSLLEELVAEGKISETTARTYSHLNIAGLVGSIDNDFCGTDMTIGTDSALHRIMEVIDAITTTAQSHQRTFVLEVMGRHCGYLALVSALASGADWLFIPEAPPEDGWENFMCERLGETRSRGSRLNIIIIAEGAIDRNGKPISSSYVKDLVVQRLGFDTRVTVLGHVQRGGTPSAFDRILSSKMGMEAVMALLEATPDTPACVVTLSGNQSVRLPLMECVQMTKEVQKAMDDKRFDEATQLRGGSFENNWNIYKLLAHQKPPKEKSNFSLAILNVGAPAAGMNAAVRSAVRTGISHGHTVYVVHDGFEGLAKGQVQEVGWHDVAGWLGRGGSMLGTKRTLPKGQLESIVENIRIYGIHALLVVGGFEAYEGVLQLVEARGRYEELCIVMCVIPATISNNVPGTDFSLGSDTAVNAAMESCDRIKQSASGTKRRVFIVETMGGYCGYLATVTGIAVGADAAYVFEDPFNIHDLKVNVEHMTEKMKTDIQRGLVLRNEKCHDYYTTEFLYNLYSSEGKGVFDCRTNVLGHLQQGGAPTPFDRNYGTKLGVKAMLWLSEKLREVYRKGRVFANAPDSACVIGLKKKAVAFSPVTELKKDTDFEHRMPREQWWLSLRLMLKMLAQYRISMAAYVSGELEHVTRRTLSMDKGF
Description: as §1, §2
(§3) PFK1 activity was determined using the rate of FBP production via an auxiliary enzyme assay adapted to a 96-well format ([Brüser et al., 2012]; [Webb et al., 2015]). The auxiliary enzymes aldolase, triosephosphate isomerase, and glycerol phosphate dehydrogenase were purchased from MilliporeSigma as ammonium sulfate slurries and desalted using an Amicon Ultracel-10K Centrifugal Filter Unit. For assays containing FBP, the rate of ADP production was determined using the auxiliary enzymes pyruvate kinase (PK) and lactate dehydrogenase (LDH) (MilliporeSigma) in a buffer containing 250 μM phosphoenolpyruvic acid, […] NADH, 50 mM HEPES pH 7.5, 100 mM KCl, 1 mM DTT, and effector concentrations as described in the text. The temperature was equilibrated to 25°C for 5 min before initiating the reaction 10 mM MgCl2. Absorbance at 340 nm was measured using a Varioskan LUX Multimode microplate reader (ThermoFisher). Kinetic parameters were generated by nonlinear regression analysis using Prism (GraphPad Software) and are the mean of a minimum of three measurements from two independent preparations of protein. One unit of activity was defined as the amount of enzyme that catalyzed the formation of 1 μmol of fructose 1,6-bisphosphate per min at 25°C. Assays for PFKM were performed at pH 7.0 due to the pH-dependence of ATP inhibition ([Trivedi and Danforth, 1966]).

[2] = target: T3, PFKL (K315R, V545L, and V582M), PFKL3Mut (Homo sapiens, UniProt P17858, K315R/V545L/V582M); experiment: Recombinant PFKL3Mut activity assay; assay type: biochemical; conditions: at 3.1 mM ATP; F6P approximately twice the Km,F6P
T3 construct: made in house; host or cells: Sf9 insect cells (baculovirus)
T3 sequence (P17858 1-780 K315R/V545L/V582M): T2 sequence (P17858 1-780) with K315R, V545L, V582M
Description: as §1, §2, §3

[3] = system: human peripheral blood neutrophils; experiment: NETosis assay in human neutrophils (SYTOX Green, DNA area); assay type: cell-based; conditions: PMA; SAR analogs compared to LDC7559
Protocol: Freshly purified neutrophils were plated at 6 × 10^3 cells/well in glass bottom 96-well plates (SensoPlate, Greiner Bio-One 82050-792) in the RPMI medium described above. Cells were pretreated with DMSO vehicle, 0.5 μM NA-11, 100 μM apocynin, 0.5 μM and 5 μM PALP, or 0.5 μM and 5 μM LDC7559 for 30 min, and then stimulated with 50 nM PMA, 1 μM f-MLP, 5 μg/mL cholesterol crystals, 10 μg/mL LPS, 25 μM nigericin, or 25 μM calcymicin (A23187) for 3 h (except in Figures S1A, 6A and S7C, where cells were stimulated for 4 h). Cells were fixed and permeabilized in 2.5% paraformaldehyde (PFA) and 0.02% Triton X-100 in PBS for 30 min. For quantification of NETosis, cells were stained with 150 nM SYTOX Green and imaged in a KEYENCE Fluorescence Microscope (KEYENCE, ZB-X800E) at 10 x magnification. For immunolabeling, fixed cells were blocked with 2% BSA for 1 h, and then stained with anti-CitH3 and anti-MPO antibodies at a dilution of 1/200 in 1% BSA in PBS. Images were taken at 60 x magnification using an ImageXpress Micro Confocal high-content imaging system (Molecular Devices).
Semi-automated analysis of both phase and fluorescence images of SYTOX Green-stained neutrophils used a specialized MATLAB algorithm. Total cells were counted by scoring phase standard deviation and radial symmetry. NETosis was classified in cells by measuring the DNA area in the fluorescence image and comparing with a select internal training set for each experiment. Unstimulated cells and PMA-stimulated, […] cells served as negative controls. PMA-stimulated cells served as a positive control. NET-forming cells are presented as a percentage of total cells.

PFK1 = PFK1 activity in PMN lysates; assay type: cell-based, human; conditions: neutrophils treated with PMA, LPS, or cholesterol crystals
Protocol: PFK1 activity assays from neutrophil lysates were modified from Abrantes et al., 2012. Briefly, neutrophils (10^7) were cultured with 0.5 μM NA-11 for 30 min, and then stimulated with 50 nM PMA, 5 μg/mL cholesterol crystals, 10 μg/mL LPS or 25 μM nigericin for 30 min. Cells were lysed in 10 mM PBS, 1% Triton X-100, and 1 x EDTA-free protease inhibitor cocktail on ice for 10 min. The soluble protein lysates were quantified by BCA assay (Pierce) and adjusted to 0.3125 mg/mL with lysis buffer. Lysate (80 μL) was mixed with 100 μL 2x enzyme cocktail solution (100 mM Tris-HCL pH7.4, 10 mM MgCl2, 0.5 mM ATP, 0.3 mM NADH, 1.35 units/mL Aldolase, 10 units/mL Triose phosphate isomerase, 4 units/mL glycerophosphate dehydrogenase, 20 mM ammonium sulfate) equilibrated to reach room temperature for 5 min. 20 μL of Fructose-6-phosphate (40 mM) was added and the reaction monitored for NADH decrease (absorbance at 340 nm) every 30 s for 30 min. Specific activity is in pmoles FBP per min per mg lysate.

Compound	inhibition of PMA-induced NETosis [3]	other results
NC(=O)c1ccc(N)nc1 [6-aminonicotinamide, reference compound]	–	NADPH replenishment / turnover after apocynin (PMNs): effectively blocked NADPH turnover
Nc1ncnc2c1ncn2[C@@H]1O[C@H](COP(=O)(O)OP(=O)(O)OP(=O)(O)O)[C@@H](O)[C@H]1O [ATP]	–	inhibition of PFKM+pocket [1]: > 90%; ATP inhibition of wild-type PFKL (PFKL): > 80%; inhibition of mutant PFKL (PFKL3Mut) [2]: > 80%
CC#CCC(=O)Nc1ccc2c(c1)OCc1cc(-c3ccccc3OC)nn1C2 [NA-2]	no inhibitor activity	–
COc1cccc(-c2cc3n(n2)Cc2ccc(NC(C)=O)cc2OC3)c1 [NA-6]	slight increase in inhibitory activity	–
COc1ccc(-c2cc3n(n2)Cc2ccc(NC(C)=O)cc2OC3)cc1 [NA-7]	slight increase in inhibitory activity	–
CC(=O)Nc1ccc2c(c1)OCc1cc(Br)nn1C2 [NA-8]	inactive	–
CC#CCC(=O)Nc1cccc(-c2cc3n(n2)Cc2ccc(NC(C)=O)cc2OC3)c1 [NA-9]	largely tolerated	–
CC(=O)Nc1ccc2c(c1)OCc1cc(-c3cccc(C#CCCCO)c3)nn1C2 [NA-10]	largely tolerated	–
bisindolylmaleimide [reference compound]	–	activation-induced reduction in PFK1 activity (PFK1): prevented the decrease in PFKL activity
